The values that follow come from the supplement of paper PMC10307832.

What all share (experiment): relative viability (nuclei count vs DMSO), 5 days (fraction); higher = more cells survive
Compound in the experiment “PAC-1 + Olaparib”: C=CCc1cccc(/C=N/NC(=O)CN2CCN(Cc3ccccc3)CC2)c1O [PAC-1] + O=C(c1cc(Cc2n[nH]c(=O)c3ccccc23)ccc1F)N1CCN(C(=O)C2CC2)CC1 [Olaparib] (partner 8 µM)
The method, boiled down: (§1)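 Five library-drug doses in √10 steps were combined with a fixed anchor-drug dose, or a single drug was given alone, by pin tool to lung cancer cell lines in 1536-well plates the day after seeding. Nuclei were stained and counted after 5 days. Relative viability is the nuclei count in treated wells over that in vehicle wells, taken as the median of duplicate plates.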

Compound in the experiment “Ibrutinib + Palbociclib”: C=CC(=O)N1CCC[C@@H](n2nc(-c3ccc(Oc4ccccc4)cc3)c3c(N)ncnc32)C1 [Ibrutinib] + CC(=O)c1c(C)c2cnc(Nc3ccc(N4CCNCC4)cn3)nc2n(C2CCCC2)c1=O [Palbociclib] (partner 0.5 µM)
The method, boiled down:
as §1

Compound in the experiment “PAC-1 + Trametinib”: C=CCc1cccc(/C=N/NC(=O)CN2CCN(Cc3ccccc3)CC2)c1O [PAC-1] + CC(=O)Nc1cccc(-n2c(=O)n(C3CC3)c(=O)c3c(Nc4ccc(I)cc4F)n(C)c(=O)c(C)c32)c1 [Trametinib] (partner 0.02 µM)
The method, boiled down: as §1

Compound in the experiment “BMX-IN-1 + Foretinib”: C=CC(=O)Nc1cc(-n2c(=O)ccc3cnc4ccc(-c5ccc(NS(C)(=O)=O)cc5)cc4c32)ccc1C [BMX-IN-1] + COc1cc2c(Oc3ccc(NC(=O)C4(C(=O)Nc5ccc(F)cc5)CC4)cc3F)ccnc2cc1OCCCN1CCOCC1 [Foretinib] (partner 0.25 µM)
The method, boiled down: as §1

In the case of ChaGo-K-1, the relative viability came to 0.419 with PAC-1 + Olaparib (first compound 0.02 µM); 0.412 with PAC-1 + Olaparib (first compound 0.06325 µM); 0.416 in the experiment with PAC-1 + Olaparib (first compound 0.2 µM); 0.404 with PAC-1 + Olaparib (first compound 2 µM); 0.94 with Ibrutinib + Palbociclib (first compound 0.005 µM); 0.886 with Ibrutinib + Palbociclib (first compound 0.01581 µM). The relative viability in the experiment with Ibrutinib + Palbociclib (first compound 0.05 µM) worked out at 0.953; with Ibrutinib + Palbociclib (first compound 0.1581 µM), 0.869; in the experiment with Ibrutinib + Palbociclib (first compound 0.5 µM), 0.901; in the experiment with PAC-1 + Trametinib (first compound 0.02 µM), 0.951; with PAC-1 + Trametinib (first compound 0.06325 µM) it was 0.917; with PAC-1 + Trametinib (first compound 0.2 µM) it was 0.837. The relative viability was 0.94 in the experiment with PAC-1 + Trametinib (first compound 2 µM); 1.09 in the experiment with BMX-IN-1 + Foretinib (first compound 0.02 µM); 0.938 with BMX-IN-1 + Foretinib (first compound 0.2 µM); 0.821 with BMX-IN-1 + Foretinib (first compound 0.6325 µM); 0.915 with BMX-IN-1 + Foretinib (first compound 2 µM).

Turning to EBC-1, the relative viability with PAC-1 + Olaparib (first compound 0.02 µM) worked out at 0.551; with PAC-1 + Olaparib (first compound 0.06325 µM) it was 0.713; with PAC-1 + Olaparib (first compound 0.2 µM) it was 0.713; with PAC-1 + Olaparib (first compound 2 µM), 0.649; in the experiment with BMX-IN-1 + Foretinib (first compound 0.02 µM), 0.0974; with BMX-IN-1 + Foretinib (first compound 0.2 µM) it was 0.114. Moreover, the relative viability in the experiment with BMX-IN-1 + Foretinib (first compound 0.6325 µM) amounted to 0.144; with BMX-IN-1 + Foretinib (first compound 2 µM), 0.101.

Consider EKVX, for which the relative viability amounted to 0.987 in the experiment with PAC-1 + Olaparib (first compound 0.02 µM); 0.847 with PAC-1 + Olaparib (first compound 0.06325 µM); 0.751 with PAC-1 + Olaparib (first compound 0.2 µM); 0.764 with PAC-1 + Olaparib (first compound 2 µM); 0.304 in the experiment with Ibrutinib + Palbociclib (first compound 0.005 µM); 0.314 with Ibrutinib + Palbociclib (first compound 0.01581 µM). The relative viability in the experiment with Ibrutinib + Palbociclib (first compound 0.05 µM) came out at 0.259; with Ibrutinib + Palbociclib (first compound 0.1581 µM) it was 0.269; with Ibrutinib + Palbociclib (first compound 0.5 µM) it was 0.155; with PAC-1 + Trametinib (first compound 0.02 µM) it was 0.369; with PAC-1 + Trametinib (first compound 0.06325 µM) it was 0.314; with PAC-1 + Trametinib (first compound 0.2 µM), 0.314. Also, the relative viability with PAC-1 + Trametinib (first compound 2 µM) was determined as 0.35; in the experiment with BMX-IN-1 + Foretinib (first compound 0.02 µM), 0.784; in the experiment with BMX-IN-1 + Foretinib (first compound 0.2 µM), 0.902; with BMX-IN-1 + Foretinib (first compound 0.6325 µM), 0.965; in the experiment with BMX-IN-1 + Foretinib (first compound 2 µM) it was 0.893.

As to EMC-BAC-2, the relative viability came out at 0.523 in the experiment with PAC-1 + Olaparib (first compound 0.02 µM); 0.481 with PAC-1 + Olaparib (first compound 0.06325 µM); 0.488 with PAC-1 + Olaparib (first compound 0.2 µM); 0.504 with PAC-1 + Olaparib (first compound 2 µM); 0.509 with Ibrutinib + Palbociclib (first compound 0.005 µM); 0.493 with Ibrutinib + Palbociclib (first compound 0.01581 µM). The relative viability in the experiment with Ibrutinib + Palbociclib (first compound 0.05 µM) was 0.566; with Ibrutinib + Palbociclib (first compound 0.5 µM), 0.497; with PAC-1 + Trametinib (first compound 0.02 µM), 1.07; in the experiment with PAC-1 + Trametinib (first compound 0.06325 µM) it was 0.925; with PAC-1 + Trametinib (first compound 0.2 µM), 0.913; in the experiment with PAC-1 + Trametinib (first compound 2 µM), 0.849. Also, the relative viability with BMX-IN-1 + Foretinib (first compound 0.02 µM) came to 1.04; with BMX-IN-1 + Foretinib (first compound 0.2 µM), 0.984; in the experiment with BMX-IN-1 + Foretinib (first compound 0.6325 µM) it was 1.06; with BMX-IN-1 + Foretinib (first compound 2 µM), 0.985.

Take EPLC-272H: the relative viability with PAC-1 + Olaparib (first compound 0.02 µM) was 0.763; with PAC-1 + Olaparib (first compound 0.06325 µM), 0.817; with PAC-1 + Olaparib (first compound 0.2 µM) it was 0.606; with PAC-1 + Olaparib (first compound 2 µM), 0.567; in the experiment with Ibrutinib + Palbociclib (first compound 0.01581 µM), 0.282; in the experiment with Ibrutinib + Palbociclib (first compound 0.05 µM), 0.312. Moreover, the relative viability with Ibrutinib + Palbociclib (first compound 0.1581 µM) was 0.316; in the experiment with Ibrutinib + Palbociclib (first compound 0.5 µM), 0.272; with PAC-1 + Trametinib (first compound 0.02 µM), 0.251; with PAC-1 + Trametinib (first compound 0.06325 µM) it was 0.322; with PAC-1 + Trametinib (first compound 0.2 µM), 0.301; with PAC-1 + Trametinib (first compound 2 µM), 0.28. Moreover, the relative viability amounted to 0.851 in the experiment with BMX-IN-1 + Foretinib (first compound 0.02 µM), 0.759 with BMX-IN-1 + Foretinib (first compound 0.2 µM), 0.622 with BMX-IN-1 + Foretinib (first compound 0.6325 µM) and 0.592 in the experiment with BMX-IN-1 + Foretinib (first compound 2 µM).

As to H3255, the relative viability with PAC-1 + Olaparib (first compound 0.02 µM) worked out at 0.64; in the experiment with PAC-1 + Olaparib (first compound 0.06325 µM), 0.579; with PAC-1 + Olaparib (first compound 0.2 µM), 0.536; in the experiment with PAC-1 + Olaparib (first compound 2 µM) it was 0.515; with Ibrutinib + Palbociclib (first compound 0.005 µM), 0.312; in the experiment with Ibrutinib + Palbociclib (first compound 0.01581 µM), 0.328. The relative viability with Ibrutinib + Palbociclib (first compound 0.05 µM) came out at 0.293; with Ibrutinib + Palbociclib (first compound 0.1581 µM) it was 0.324; with Ibrutinib + Palbociclib (first compound 0.5 µM), 0.26; in the experiment with PAC-1 + Trametinib (first compound 0.02 µM), 0.713; with PAC-1 + Trametinib (first compound 0.06325 µM), 0.746; with PAC-1 + Trametinib (first compound 0.2 µM), 0.587. Further, the relative viability was 0.512 with PAC-1 + Trametinib (first compound 2 µM); 0.859 with BMX-IN-1 + Foretinib (first compound 0.02 µM); 0.989 with BMX-IN-1 + Foretinib (first compound 0.2 µM); 0.925 with BMX-IN-1 + Foretinib (first compound 0.6325 µM); 0.99 in the experiment with BMX-IN-1 + Foretinib (first compound 2 µM).

On to HARA, for which the relative viability in the experiment with PAC-1 + Olaparib (first compound 0.02 µM) was 0.769; with PAC-1 + Olaparib (first compound 0.06325 µM), 0.65; with PAC-1 + Olaparib (first compound 0.2 µM), 0.813; with PAC-1 + Olaparib (first compound 2 µM), 1.16; with Ibrutinib + Palbociclib (first compound 0.005 µM), 0.284; in the experiment with Ibrutinib + Palbociclib (first compound 0.01581 µM), 0.217. Also, the relative viability in the experiment with Ibrutinib + Palbociclib (first compound 0.05 µM) was 0.241; with Ibrutinib + Palbociclib (first compound 0.1581 µM) it was 0.254; with Ibrutinib + Palbociclib (first compound 0.5 µM), 0.223; with PAC-1 + Trametinib (first compound 0.02 µM), 0.632; in the experiment with PAC-1 + Trametinib (first compound 0.06325 µM), 0.697; with PAC-1 + Trametinib (first compound 0.2 µM), 0.621. For the same cell line, the relative viability was 0.473 in the experiment with PAC-1 + Trametinib (first compound 2 µM); 1.43 with BMX-IN-1 + Foretinib (first compound 0.02 µM); 1.27 in the experiment with BMX-IN-1 + Foretinib (first compound 0.2 µM); 0.936 with BMX-IN-1 + Foretinib (first compound 0.6325 µM); 0.799 with BMX-IN-1 + Foretinib (first compound 2 µM).

As to HCC-15, the relative viability with PAC-1 + Olaparib (first compound 0.02 µM) was determined as 0.644; in the experiment with PAC-1 + Olaparib (first compound 0.06325 µM) it was 0.775; in the experiment with PAC-1 + Olaparib (first compound 0.2 µM) it was 0.69; with PAC-1 + Olaparib (first compound 2 µM), 0.771; in the experiment with Ibrutinib + Palbociclib (first compound 0.005 µM), 0.788; in the experiment with Ibrutinib + Palbociclib (first compound 0.01581 µM) it was 0.705. The relative viability with Ibrutinib + Palbociclib (first compound 0.05 µM) stood at 0.742; with Ibrutinib + Palbociclib (first compound 0.1581 µM), 0.706; in the experiment with Ibrutinib + Palbociclib (first compound 0.5 µM), 0.73; in the experiment with PAC-1 + Trametinib (first compound 0.02 µM), 0.373; in the experiment with PAC-1 + Trametinib (first compound 0.06325 µM) it was 0.38; with PAC-1 + Trametinib (first compound 0.2 µM) it was 0.419. The relative viability in the experiment with PAC-1 + Trametinib (first compound 2 µM) worked out at 0.41; in the experiment with BMX-IN-1 + Foretinib (first compound 0.02 µM), 1.24; in the experiment with BMX-IN-1 + Foretinib (first compound 0.2 µM) it was 1.13; in the experiment with BMX-IN-1 + Foretinib (first compound 0.6325 µM), 1.11; with BMX-IN-1 + Foretinib (first compound 2 µM), 1.02.

HCC-44: the relative viability in the experiment with PAC-1 + Olaparib (first compound 0.02 µM) was 1.05; in the experiment with PAC-1 + Olaparib (first compound 0.06325 µM) it was 0.906; in the experiment with PAC-1 + Olaparib (first compound 0.2 µM), 0.963; with PAC-1 + Olaparib (first compound 2 µM) it was 0.986; with Ibrutinib + Palbociclib (first compound 0.005 µM), 0.982; with Ibrutinib + Palbociclib (first compound 0.01581 µM), 0.977. Besides, the relative viability with Ibrutinib + Palbociclib (first compound 0.05 µM) was determined as 1.03; with Ibrutinib + Palbociclib (first compound 0.1581 µM) it was 0.979; with Ibrutinib + Palbociclib (first compound 0.5 µM), 0.92; with PAC-1 + Trametinib (first compound 0.02 µM) it was 1.05; in the experiment with PAC-1 + Trametinib (first compound 0.06325 µM), 1.08; with PAC-1 + Trametinib (first compound 0.2 µM) it was 1.07. For the same cell line, the relative viability with PAC-1 + Trametinib (first compound 2 µM) was found to be 1.02.
